Measured values taken from patent US20250101025A1, “NOVEL PLK1 DEGRADATION INDUCING COMPOUND” (UPPTHERA, INC., priority 2021, published 2025).
Like-named read-outs stand apart in the source and are kept apart here.

Experiments:
Assay type in all cases: cell-based
H526 cell line = test: Cell viability assay for NCI-H526 cell line (EZ-Cytox); conditions: Homo sapiens, NCI-H526, 120 h; H526 cells, 3-fold dilutions 3000 nM to 0.46 nM, 5 days
Method: (1) Culture of NCI-H526 Cell Line
(2) Treatment of Compounds of the Present Invention and Method of Cell Viability Assay
After treating the compound to each well to make the total volume of 200 μL, it was cultured in a CO2 incubator (Thermo Fisher Science, Cat. No. 4111) for 5 days.
The absorbance of the completely cultured sample was measured by setting the wavelength of a plate reader (BMG Labtech, CLARIOstar Plus) to […], and was measured after shaking for 3 minutes in a plate reader before measurement.
In Table 3, Activity represents IC50 value of each Exemplary Compound treatment group to H526 cell line (A: <30 nM, B: <50 nM, C: <100 nM, D: <200 nM, E: <400 nM).

MRC-5 cell line = test: Cell viability assay for MRC-5 cell line (EZ-Cytox cytotoxicity experiment); conditions: Homo sapiens, MRC5, 120 h, MRC-5 normal cell line, 5 days
Method: 4. Cell Viability Assay for MRC-5 Cell Line
(1) Culture of MRC-5 Cell Line
Passage of cultured cells was maintained within P15.
(2) Treatment of Compounds of the Present Invention
Then, it was cultured in 37° C.
(3) Cytotoxicity Experiment
CO2 incubator for 4 hours.

PLK1 = target: T1, PLK1 (Homo sapiens, UniProt P53350); test: Luciferase assay for PLK1 in HeLa LgBit (Plk1-HiBit KI) cell line; conditions: compound 300 nM, luminescence after 9 hours
T1 construct: endogenous in cells; host or cells: HeLa LgBit (Plk1-HiBit KI): HeLa stably expressing LgBit, with HiBit knocked in at the endogenous Plk1 locus by CRISPR/Cas9
T1 sequence (P53350 whole entry): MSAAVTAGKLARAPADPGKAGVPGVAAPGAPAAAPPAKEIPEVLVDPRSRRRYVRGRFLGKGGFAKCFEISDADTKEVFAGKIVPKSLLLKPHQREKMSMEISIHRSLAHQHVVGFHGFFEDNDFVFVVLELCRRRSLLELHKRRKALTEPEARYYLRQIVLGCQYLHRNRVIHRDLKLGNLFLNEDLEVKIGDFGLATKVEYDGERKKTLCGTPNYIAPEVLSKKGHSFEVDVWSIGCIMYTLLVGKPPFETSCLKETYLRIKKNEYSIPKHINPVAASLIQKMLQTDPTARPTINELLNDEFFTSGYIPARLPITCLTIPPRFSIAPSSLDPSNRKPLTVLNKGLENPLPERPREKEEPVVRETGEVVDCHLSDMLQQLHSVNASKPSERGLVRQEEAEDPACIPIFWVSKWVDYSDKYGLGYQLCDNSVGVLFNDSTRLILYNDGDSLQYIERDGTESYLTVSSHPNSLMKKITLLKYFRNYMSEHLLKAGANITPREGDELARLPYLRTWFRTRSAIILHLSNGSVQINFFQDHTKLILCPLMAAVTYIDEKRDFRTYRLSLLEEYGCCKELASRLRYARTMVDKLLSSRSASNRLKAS
Method: 2. Luciferase Assay for PLK1
(1) Preparation and Culture of HeLa LgBit (Plk1-HiBit KI) Cell Line
A HeLa cell line in which the LgBit vector was transfected and expressed stably was prepared. Then, after constructing gRNA and donor to express the HiBit amino acid sequence behind the C-terminal of the Plk1 gene, which was inherent in the cell, it was inserted into the cell together with a vector capable of expressing CRISPR/Cas9. Only the cells in which the insertion was completed and knock-in had progressed were selected, sub-cultured and used.
(2) Treatment of Compounds of the Present Invention and Method of Luciferase Assay
In the case of HeLa LgBit (Plk1-HiBit KI), the compounds were treated after being released after thymidine block, and the process was as follows. Thymidine (Sigma-Aldrich Cat. No. T9250-5G) was completely dissolved in DW and used in the experiment. For thymidine block, the products were treated with 2 mM of thymidine and then incubated for 24 hours. For release and chemical treatment, the medium was suctioned and washed with 1×PBS. TrypLE™ was added and incubated in 37° C. CO2 incubator for 5 min. Cells neutralized by adding complete media were counted through a counter. For each well of a 96-well culture plate (SPL), 3.3×10^4 cells and a total medium volume of 150 μL were seeded and incubated in a CO2 incubator.
Each cell line was incubated in a CO2 incubator for 18 hours, and Endurazine was added to each well to make up 4% of the total volume. After adding the compound of the present invention in a 96-well white plate (SPL) to a concentration of 300 nM, the wavelength of the plate reader (BMG Labtech, CLARIOstar Plus) was set to […], and then the luminescence was tracked in real time.
In Table 2, Activity represents the ratio of the luminescence value of each Exemplary Compound treatment group to DMSO treatment group (+++: <0.3, ++<0.6, +<0.7).

[1] = highest concentration 10000 nM, N.D. = no cytotoxicity until 10 μM, read-out: Activity: IC50 value to MRC-5 cell line, N.D. cells

Compound | IC50 (H526 cell line) [nM] | IC50 (MRC-5 cell line; [1]) [nM] | Activity: ratio of the luminescence value of each Exemplary Compound treatment group to DMSO treatment group (PLK1) | IC50 (MRC-5 cell line; 3-fold dilutions 10000 nM to 1.52 nM, Exemplary Compounds, numeric values, read-out: Activity: IC50 value (nM) to MRC-5 cell line) [nM]
COc1cc(C(=O)NN2CCC(N3CC4(CCN(c5ccc(NC6CCC(=O)NC6=O)cc5F)CC4)C3)CC2)ccc1Nc1ncc2c(n1)N(C(C)C)CC(F)(F)C(=O)N2C (centres unmarked) [Compound 32, 4-((7,7-difluoro-9-isopropyl-5-methyl-6-oxo-6,7,8,9-tetrahydro-5H-pyrimido[4,5-b][1,4]diazepin-2-yl)amino)-N-(4-(7-(4-((2,6-dioxopiperidin-3-yl)amino)-2-fluorophenyl)-2,7-diazaspiro[3.5]nonan-2-yl)piperidin-1-yl)-3-methoxybenzamide] | < 50 | > 10000 | ++ (++<0.6) | 
COc1cc(C(=O)NC2CCN(C(=O)CCN3CCN(c4ccc(NC5CCC(=O)NC5=O)cc4)CC3)CC2)ccc1Nc1ncc2c(n1)N(C1CCCC1)CC(F)(F)C(=O)N2C (centres unmarked) [Compound 13, 4-((9-cyclopentyl-7,7-difluoro-5-methyl-6-oxo-6,7,8,9-tetrahydro-5H-pyrimido[4,5-b][1,4]diazepin-2-yl)amino)-N-(1-(3-(4-(4-((2,6-dioxopiperidin-3-yl)amino)phenyl)piperazin-1-yl)propanoyl)piperidin-4-yl)-3-methoxybenzamide] | < 30 | > 10000 | +++ (+++: <0.3) | 
COc1cc(C(=O)NC2CCN(C(=O)CCN3CCN(c4cccc(N(C)C5CCC(=O)NC5=O)c4)CC3)CC2)ccc1Nc1ncc2c(n1)N(C1CCCC1)CC(F)(F)C(=O)N2C (centres unmarked) [Compound 15, 4-((9-cyclopentyl-7,7-difluoro-5-methyl-6-oxo-6,7,8,9-tetrahydro-5H-pyrimido[4,5-b][1,4]diazepin-2-yl)amino)-N-(1-(3-(4-(3-((2,6-dioxopiperidin-3-yl)(methyl)amino)phenyl)piperazin-1-yl)propanoyl)piperidin-4-yl)-3-methoxybenzamide] | < 50 | > 10000 | ++ (++<0.6) | 
COc1cc(C(=O)NC2CCN(C(=O)CCN3CCN(c4ccc(C(=O)NC5CCC(=O)NC5=O)nc4)CC3)CC2)ccc1Nc1ncc2c(n1)N(C1CCCC1)CC(F)(F)C(=O)N2C (centres unmarked) [Compound 7, 5-(4-(3-(4-(4-((9-cyclopentyl-7,7-difluoro-5-methyl-6-oxo-6,7,8,9-tetrahydro-5H-pyrimido[4,5-b][1,4]diazepin-2-yl)amino)-3-methoxybenzamido)piperidin-1-yl)-3-oxopropyl)piperazin-1-yl)-N-(2,6-dioxopiperidin-3-yl)picolinamide] |  |  | + (+<0.7) | 
COc1cc(C(=O)NC2CC3(CCN(CC4CCN(c5ccc(NC6CCC(=O)NC6=O)cc5)CC4)CC3)C2)ccc1Nc1ncc2c(n1)N(C(C)C)CC(F)(F)C(=O)N2C (centres unmarked) [Compound 28, 4-((7,7-difluoro-9-isopropyl-5-methyl-6-oxo-6,7,8,9-tetrahydro-5H-pyrimido[4,5-b][1,4]diazepin-2-yl)amino)-N-(7-((1-(4-((2,6-dioxopiperidin-3-yl)amino)phenyl)piperidin-4-yl)methyl)-7-azaspiro[3.5]nonan-2-yl)-3-methoxybenzamide] | < 30 |  | ++ (++<0.6) | 10200
COc1cc(C(=O)NC2CCN(C(=O)CCN3CCN(c4ccc(C(=O)NC5CCC(=O)NC5=O)cc4)CC3)CC2)ccc1Nc1ncc2c(n1)N(C1CCCC1)CC(F)(F)C(=O)N2C (centres unmarked) [Compound 4, 4-((9-cyclopentyl-7,7-difluoro-5-methyl-6-oxo-6,7,8,9-tetrahydro-5H-pyrimido[4,5-b][1,4]diazepin-2-yl)amino)-N-(1-(3-(4-(4-((2,6-dioxopiperidin-3-yl)carbamoyl)phenyl)piperazin-1-yl)propanoyl)piperidin-4-yl)-3-methoxybenzamide] |  |  | + (+<0.7) | 
COc1cc(C(=O)NC2CCN(CCC3CCN(c4cccc5c4n(C)c(=O)n5C4CCC(=O)NC4=O)CC3)CC2)ccc1Nc1ncc2c(n1)N(C1CCCC1)CC(F)(F)C(=O)N2C (centres unmarked) [Compound 37, 4-((9-cyclopentyl-7,7-difluoro-5-methyl-6-oxo-6,7,8,9-tetrahydro-5H-pyrimido[4,5-b][1,4]diazepin-2-yl)amino)-N-(1-(2-(1-(1-(2,6-dioxopiperidin-3-yl)-3-methyl-2-oxo-2,3-dihydro-1H-benzo[d]imidazol-4-yl)piperidin-4-yl)ethyl)piperidin-4-yl)-3-methoxybenzamide] | < 50 | > 10000 | ++ (++<0.6) | 
COc1cc(C(=O)NN2CCC(N3CC4(CCN(c5ccc(N(C)C6CCC(=O)NC6=O)cc5)CC4)C3)CC2)ccc1Nc1ncc2c(n1)N(C(C)C)CC(F)(F)C(=O)N2C (centres unmarked) [Compound 31, 4-((7,7-difluoro-9-isopropyl-5-methyl-6-oxo-6,7,8,9-tetrahydro-5H-pyrimido[4,5-b][1,4]diazepin-2-yl)amino)-N-(4-(7-(4-((2,6-dioxopiperidin-3-yl)(methyl)amino)phenyl)-2,7-diazaspiro[3.5]nonan-2-yl)piperidin-1-yl)-3-methoxybenzamide] | < 100 |  | ++ (++<0.6) | 
COc1cc(C(=O)NC2CC3(CCN(CC4CCN(c5ccc6c(N7CCC(=O)NC7=O)nn(C)c6c5)CC4)CC3)C2)ccc1Nc1ncc2c(n1)N(C1CCCC1)CC(F)(F)C(=O)N2C [Compound 40, 4-((9-cyclopentyl-7,7-difluoro-5-methyl-6-oxo-6,7,8,9-tetrahydro-5H-pyrimido[4,5-b][1,4]diazepin-2-yl)amino)-N-(7-((1-(3-(2,4-dioxotetrahydropyrimidin-1 (2H)-yl)-1-methyl-1H-indazol-6-yl)piperidin-4-yl)methyl)-7-azaspiro[3.5]nonan-2-yl)-3-methoxybenzamide] | < 30 |  |  | 
COc1cc(C(=O)NN2CCC(N3CC4(CCN(c5cccc6c5n(C)c(=O)n6C5CCC(=O)NC5=O)CC4)C3)CC2)ccc1Nc1ncc2c(n1)N(C(C)C)CC(F)(F)C(=O)N2C (centres unmarked) [Compound 41, 4-((7,7-difluoro-9-isopropyl-5-methyl-6-oxo-6,7,8,9-tetrahydro-5H-pyrimido[4,5-b][1,4]diazepin-2-yl)amino)-N-(4-(7-(1-(2,6-dioxopiperidin-3-yl)-3-methyl-2-oxo-2,3-dihydro-1H-benzo[d]imidazol-4-yl)-2,7-diazaspiro[3.5]nonan-2-yl)piperidin-1-yl)-3-methoxybenzamide] |  |  | + (+<0.7) | 
COc1cc(C(=O)NC2CC3(CCN(CC4CCN(c5ccc(N(C)C6CCC(=O)NC6=O)cc5)CC4)CC3)C2)ccc1Nc1ncc2c(n1)N(C(C)C)CC(F)(F)C(=O)N2C (centres unmarked) [Compound 27, 4-((7,7-difluoro-9-isopropyl-5-methyl-6-oxo-6,7,8,9-tetrahydro-5H-pyrimido[4,5-b][1,4]diazepin-2-yl)amino)-N-(7-((1-(4-((2,6-dioxopiperidin-3-yl)(methyl)amino)phenyl)piperidin-4-yl)methyl)-7-azaspiro[3.5]nonan-2-yl)-3-methoxybenzamide] | < 30 |  | +++ (+++: <0.3) | 
